Measurements as given in patent US20230405011A1, “COMBINATION THERAPY FOR THE TREATMENT OF CANCER” (Novartis AG, priority 2013, published 2023).

Assay: Phase Ib/II trial of Example 5: pharmacokinetics
Format: in vivo

CO[C@H]1C[C@@H]2CC[C@@H](C)[C@@](O)(O2)C(=O)C(=O)N2CCCC[C@H]2C(=O)O[C@H]([C@H](C)C[C@@H]2CC[C@@H](OCCO)[C@H](OC)C2)CC(=O)[C@H](C)/C=C(\C)[C@@H](O)[C@@H](OC)C(=O)[C@H](C)C[C@H](C)/C=C/C=C/C=C/1C [EVE, Everolimus, reference compound]
EVE exposure at steady state (in vivo): increased

CN(C)C(=O)c1cc2cnc(Nc3ccc(N4CCNCC4)cn3)nc2n1C1CCCC1 [Compound A1, 7-Cyclopentyl-2-(5-piperazin-1-yl-pyridin-2-ylamino)-7H-pyrrolo[2,3-d]pyrimidine-6-carboxylic acid dimethylamide]
effect of EVE on Compound A1 exposure (preliminary PK analysis): does not affect
absorption (steady state (C1D15), Compound A1+EVE+EXE): rapidly absorbed
